Assay results reported in PubChem BioAssay AID330 (DTP/NCI, 2004).
“And” between values parts separate entries of the source, which are not always exact repeats. Equal values may be shown once. Toxic doses and inconclusive results are not listed. How the source made its calls: active means survival T/C of 150% or more; inactive means T/C below 125% in these data.

Test system: P388 leukemia ip, CD2F1 mice, survival T/C
Test: NCI In Vivo Anticancer Drug Screen. Data for tumor model P388 Leukemia (intraperitoneal) in CD2F1 (CDF1) mice
Details: endpoint: median survival time, higher = longer survival
Outline: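 Mice carrying the transplanted tumor received test compound or vehicle. Survival was recorded in each group, and the value is the treated-group measurement divided by that of the vehicle-treated control group.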

[1] = dose: 50.0 mg/kg/injection, schedule: Q01DX009 (ip), vehicle: saline with Tween-80
[2] = dose: 100.0 mg/kg/injection, schedule: Q01DX009 (ip), vehicle: saline with Tween-80
[3] = dose: 200.0 mg/kg/injection, schedule: Q01DX009 (ip), vehicle: saline with Tween-80
[4] = dose: 100.0 mg/kg/injection, schedule: Q04DX003 (ip), vehicle: saline
[5] = dose: 200.0 mg/kg/injection, schedule: Q04DX003 (ip), vehicle: saline
[6] = dose: 50.0 mg/kg/injection, schedule: Q04DX002 (ip), vehicle: saline with Tween-80
[7] = dose: 60.0 mg/kg/injection, schedule: Q01DX005 (ip), vehicle: saline with Tween-80
[8] = dose: 120.0 mg/kg/injection, schedule: Q01DX005 (ip), vehicle: saline with Tween-80
[9] = dose: 240.0 mg/kg/injection, schedule: Q01DX005 (ip), vehicle: saline with Tween-80
[10] = dose: 100.0 mg/kg/injection, schedule: Q04DX002 (ip), vehicle: saline with Tween-80
[11] = dose: 50.0 mg/kg/injection, schedule: Q01DX009 (ip), vehicle: saline
[12] = dose: 100.0 mg/kg/injection, schedule: Q01DX009 (ip), vehicle: saline
[13] = dose: 200.0 mg/kg/injection, schedule: Q01DX009 (ip), vehicle: saline

Measured: T/C

CC(/C=C/c1ccc(O)cc1)=N\NC(N)=S
inactive: dose: 3.75 mg/kg/injection, schedule: Q01DX005 (ip), vehicle: Klucel (hydroxypropylcellulose) (HPC) 103 % of control | dose: 7.5 mg/kg/injection, schedule: Q01DX005 (ip), vehicle: Klucel (hydroxypropylcellulose) (HPC) 99 % of control | dose: 15.0 mg/kg/injection, schedule: Q01DX005 (ip), vehicle: Klucel (hydroxypropylcellulose) (HPC) 99 % of control | dose: 30.0 mg/kg/injection, schedule: Q01DX005 (ip), vehicle: Klucel (hydroxypropylcellulose) (HPC) 99 % of control and 104 % of control

COC(c1ccc(OCc2ccccc2)cc1)C(Br)C(=O)c1ccc(Cl)cc1Cl (centres undefined)
inactive: [1] 88 % of control | [2] 101 % of control | [3] 88 % of control

COC1(OC)C(Cl)=C(Cl)C(Cl)=C1Cl
inactive: dose: 6.25 mg/kg/injection, schedule: Q01DX009 (ip), vehicle: saline with Tween-80 95 % of control | dose: 12.5 mg/kg/injection, schedule: Q01DX009 (ip), vehicle: saline with Tween-80 118 % of control | dose: 25.0 mg/kg/injection, schedule: Q01DX009 (ip), vehicle: saline with Tween-80 113 % of control

C/C=C(\C)N=NNc1ccccc1
inactive: dose: 100.0 mg/kg/injection, schedule: Q04DX003 (ip), vehicle: saline + Tween-80 + alcohol 114 % of control | dose: 200.0 mg/kg/injection, schedule: Q04DX003 (ip), vehicle: saline + Tween-80 + alcohol 114 % of control

CCC[CH2][Sn]([F])([CH2]CCC)[O][Sn]([F])([CH2]CCC)[CH2]CCC
inactive: [4] 101 % of control | [5] 105 % of control

CN=C(N)NN=C(c1ccc(F)cc1)c1ccc(F)cc1
inactive: dose: 12.5 mg/kg/injection, schedule: Q04DX002 (ip), vehicle: saline with Tween-80 100 % of control and 106 % of control | [6] 87 % of control

CCSC(=O)/C=C\C=[N+](/[O-])OC
inactive: dose: 12.5 mg/kg/injection, schedule: Q01DX009 (ip), vehicle: other 103 % of control | dose: 25.0 mg/kg/injection, schedule: Q01DX009 (ip), vehicle: other 104 % of control | dose: 50.0 mg/kg/injection, schedule: Q01DX009 (ip), vehicle: other 112 % of control and 94 % of control | dose: 100.0 mg/kg/injection, schedule: Q01DX009 (ip), vehicle: other 97 % of control

O=C1C2CC=CCC2C(=O)N1CC[P+](c1ccccc1)(c1ccccc1)c1ccccc1 (centres undefined)
inactive: dose: 0.78 mg/kg/injection, schedule: Q01DX009 (ip), vehicle: water 100 % of control | dose: 1.56 mg/kg/injection, schedule: Q01DX009 (ip), vehicle: water 102 % of control and 95 % of control | dose: 3.13 mg/kg/injection, schedule: Q01DX009 (ip), vehicle: water 102 % of control and 106 % of control | dose: 6.25 mg/kg/injection, schedule: Q01DX009 (ip), vehicle: water 112 % of control | dose: 12.5 mg/kg/injection, schedule: Q01DX009 (ip), vehicle: water 115 % of control and 116 % of control | dose: 25.0 mg/kg/injection, schedule: Q01DX009 (ip), vehicle: water 115 % of control

CC1C(=O)C(C)C(c2ccccc2)N(C)C1c1ccccc1 (centres undefined)
inactive: dose: 50.0 mg/kg/injection, schedule: Q01DX005 (ip), vehicle: saline with Tween-80 96 % of control | [7] 101 % of control | dose: 100.0 mg/kg/injection, schedule: Q01DX005 (ip), vehicle: saline with Tween-80 106 % of control | [8] 96 % of control | dose: 200.0 mg/kg/injection, schedule: Q01DX005 (ip), vehicle: saline with Tween-80 98 % of control | [9] 106 % of control

O=c1[nH]cc(NS(=O)(=O)c2ccccc2)c(=O)[nH]1
inactive: [7] 105 % of control | [8] 101 % of control

[O-]/[N+](=C\c1ccccc1)CC1(O)CCCCC1
inactive: [1] 90 % of control | [2] 88 % of control | [3] 99 % of control

CC(O)C(O)C(O)C(C=O)OC1OC(C)C(O)C(O)C1O (centres undefined)
inactive: dose: 2.5 mg/kg/injection, schedule: Q01DX005 (ip), vehicle: saline + alcohol 99 % of control | dose: 5.0 mg/kg/injection, schedule: Q01DX005 (ip), vehicle: saline + alcohol 96 % of control | dose: 10.0 mg/kg/injection, schedule: Q01DX005 (ip), vehicle: saline + alcohol 110 % of control | dose: 20.0 mg/kg/injection, schedule: Q01DX005 (ip), vehicle: saline + alcohol 91 % of control

CN(C)C(=O)C1SCCCS1
inactive: [10] 107 % of control | dose: 200.0 mg/kg/injection, schedule: Q04DX002 (ip), vehicle: saline with Tween-80 108 % of control | dose: 400.0 mg/kg/injection, schedule: Q04DX002 (ip), vehicle: saline with Tween-80 108 % of control

Cc1ccc(NC(=O)Oc2ccc(C#N)cc2)cc1Cl
inactive: dose: 60.0 mg/kg/injection, schedule: Q01DX005 (ip), vehicle: Klucel (hydroxypropylcellulose) (HPC) 118 % of control | dose: 120.0 mg/kg/injection, schedule: Q01DX005 (ip), vehicle: Klucel (hydroxypropylcellulose) (HPC) 111 % of control | dose: 240.0 mg/kg/injection, schedule: Q01DX005 (ip), vehicle: Klucel (hydroxypropylcellulose) (HPC) 118 % of control

COc1ccc(NC(=O)C/C(C)=C2/C(=O)NN(c3ccccc3)C2=O)cc1
inactive: [7] 104 % of control | [8] 97 % of control | [9] 92 % of control

CC(C)(C)c1cc(C(=O)O)c(Br)c(C(=O)O)c1
inactive: [11] 97 % of control | [12] 102 % of control | [13] 100 % of control

CCOC(=O)NC(NC(=O)OCC)c1ccccc1[N+](=O)[O-]
inactive: [4] 99 % of control | [5] 99 % of control | dose: 400.0 mg/kg/injection, schedule: Q04DX003 (ip), vehicle: saline 89 % of control

O=C(O)CC(CC(=O)O)c1ccc2c(c1)OCO2
inactive: dose: 50.0 mg/kg/injection, schedule: Q01DX005 (ip), vehicle: Klucel (hydroxypropylcellulose) (HPC) 99 % of control | dose: 100.0 mg/kg/injection, schedule: Q01DX005 (ip), vehicle: Klucel (hydroxypropylcellulose) (HPC) 109 % of control | dose: 200.0 mg/kg/injection, schedule: Q01DX005 (ip), vehicle: Klucel (hydroxypropylcellulose) (HPC) 99 % of control

COc1cc(NCC(C)(O)CN2CCCC(C)C2C)c2ncccc2c1 (centres undefined)
inactive: dose: 12.5 mg/kg/injection, schedule: Q01DX005 (ip), vehicle: saline 97 % of control | dose: 25.0 mg/kg/injection, schedule: Q01DX005 (ip), vehicle: saline 101 % of control | dose: 50.0 mg/kg/injection, schedule: Q01DX005 (ip), vehicle: saline 112 % of control

O=C(O)/C(Cl)=C(Cl)\C=N\Nc1ccccc1
inactive: dose: 25.0 mg/kg/injection, schedule: Q04DX002 (ip), vehicle: saline with Tween-80 100 % of control | [6] 102 % of control | [10] 100 % of control

CN1CCC(O)(O)C(Cl)(Cl)C1
inactive: dose: 50.0 mg/kg/injection, schedule: Q01DX005 (ip), vehicle: suspension in saline 104 % of control | dose: 100.0 mg/kg/injection, schedule: Q01DX005 (ip), vehicle: suspension in saline 99 % of control | dose: 200.0 mg/kg/injection, schedule: Q01DX005 (ip), vehicle: suspension in saline 95 % of control

CC1=CC2C(c3ccccc3)Nc3ccccc3N2C1=O (centres undefined)
inactive: [11] 94 % of control | [12] 100 % of control | [13] 94 % of control

O=[N+]([O-])c1ccc(N2CCOCC2)c2c1no[n+]2[O-]
inactive: dose: 8.0 mg/kg/injection, schedule: Q04DX003 (ip), vehicle: suspension in saline 98 % of control | dose: 16.0 mg/kg/injection, schedule: Q04DX003 (ip), vehicle: suspension in saline 105 % of control | dose: 32.0 mg/kg/injection, schedule: Q04DX003 (ip), vehicle: suspension in saline 99 % of control | dose: 64.0 mg/kg/injection, schedule: Q04DX003 (ip), vehicle: suspension in saline 123 % of control

CCCCCCOC(=O)Nc1nnc(SSC2=NN=CC2NC(=O)OCCCCCC)s1 (centres undefined)
inactive: dose: 100.0 mg/kg/injection, schedule: Q01DX001 (ip), vehicle: saline 91 % of control | dose: 200.0 mg/kg/injection, schedule: Q01DX001 (ip), vehicle: saline 90 % of control | dose: 400.0 mg/kg/injection, schedule: Q01DX001 (ip), vehicle: saline 90 % of control

Cc1ccc(N2C(=O)c3ccccc3NC2(C)CCl)cc1 (centres undefined)
inactive: [1] 103 % of control | [2] 103 % of control | [3] 112 % of control

CSc1ncc(Br)c(Sc2nccn2C)n1
inactive: [7] 112 % of control | [8] 117 % of control | [9] 114 % of control
